Measurements reported in US20160346255A1, “METHODS, AGENTS AND COMPOSITIONS FOR TREATMENT OF INFLAMMATORY CONDITIONS” (Betanien Hospital, priority 2014, published 2016).
Non-standard residues stand in square brackets, D forms with d. Residues, ends and D or L forms follow the SMILES beside them. *: point of attachment. dPhe(4-NHCONH2) = NC(=O)Nc1ccc(C[C@@H](N)C(=O)O)cc1; Dihydroorotyl(S) = O=C1C[C@@H](C(=O)*)NC(=O)N1; dPhe(4-Cl) = N[C@H](Cc1ccc(Cl)cc1)C(=O)O; Phe(4-NH2) = Nc1ccc(C[C@H](N)C(=O)O)cc1; d2Nal = N[C@H](Cc1ccc2ccccc2c1)C(=O)O; Lys(iPr) = CC(C)NCCCC[C@H](N)C(=O)O; d3Pal = N[C@H](Cc1cccnc1)C(=O)O

Columns and labels:
Assay type in all cases: in vivo, human
[1] = tested on: Patients with Rheumatoid Arthritis; assay: Rheumatoid arthritis patients treated with degarelix: laboratory variables; set-up: LH: unit not given beside the values
Description: [table] […] Examples of Patients with Continued RA Improvement Over Several Weeks Despite Stably Low Levels of LH

[2] = tested on: Patient with Inflammatory Bowel Disease; assay: Inflammatory bowel disease (colitis) patient treated with degarelix
Protocol: • person, diagnosed with colitis • Inflammatory bowel disease, colitis verified on colonic biopsy sample. Patients with inflammatory colitis usually have a higher incidence of autoimmune diseases. This patient also had ankylosing spondylitis. • September 2014 received first dose of degarelix 240 mg s.c. • Received degarelix 80 mg s.c. approximately every two weeks thereafter. • The inflammatory bowel diseases (IBDs), Crohn's disease and ulcerative colitis, are chronic relapsing, remitting disorders. The assessment of disease activity presents challenges to clinicians. Fecal biomarkers, such as fecal calprotectin, are a non-invasive method which can be used to aid managing clinicians. Calprotectin is released extracellularly in times of cell stress or damage and can be detected within feces and thus be used as a sensitive marker of intestinal inflammation. […] Fecal calprotectin levels are elevated in patients with both Crohn's disease and ulcerative colitis (1-2). There have been several studies looking at the use of fecal calprotectin to predict or monitor response to treatment. • In a study looking at 11 patients with relapsing IBD, fecal calprotectin was analysed at inclusion and after 8 weeks of treatment. Treatment was individualized medical therapy. A normalized fecal calprotectin concentration at 8 weeks predicted a complete response in 100% of patients (3), corresponding to endoscopic mucosal healing (4). It has been shown that in patients with steroid induced clinical remission fecal calprotectin levels can remain elevated (5-6). […] A level of <50 mg/kg is considered normal or remission for IBD. • There is no gold standard index in the measurement of colitis disease activity in clinical trials. Due to the invasive nature of endoscopies, the Mayo non-invasive colitis assessment of response score can be used to assess treatment effect of IBD in clinical trials (9-11). […] Both the partial Mayo and total Mayo score are used to assess disease activity in clinical trials (13). The partial Mayo score also had good discriminatory value between subjects in remission and those with active disease (14). A clinical response has been defined as a 3 point or greater change in the partial Mayo score (15).

Patient with Psoriasis = assay: Psoriasis patient treated with degarelix
Protocol: The PASI score is a standardized score for assessing disease activity in psoriasis.
He therefore received testosterone supplementation in the form of Testogel containing 50 mg of testosterone, first daily; thereafter every 3 days to maintain testosterone levels within the normal range.
One trial examined 15 patients with psoriasis who were taking lithium.

[3] = tested on: Patient with Spondyloarthritis; assay: Spondyloarthritis patient treated with degarelix; settings: for BASDAI: baseline 3.8
Protocol: • person, diagnosed with spondyloarthritis • Fulfilled the ASAS criteria for axial radiographic spondyloarthritis. • October 2014 received first dose of degarelix, 240 mg s.c. • Received degarelix 80 mg s.c. every two weeks thereafter. Disease activity in ankylosing spondylitis/spondyloarthritis is measured by the BASDAI (Bath Ankylosing Spondylitis Disease Activity Index (1)), has been extensively validated in clinical trials (2-3), and is one of the most commonly used outcome measures in clinical trials. This is a composite index that evaluates fatigue, axial and peripheral pain, stiffness and enthesopathy. Their BASDAI was at 3.8 at baseline. In October 2014 they received their first dose of degarelix 240 mg s.c. By 2 weeks, their BASDAI had reduced to 2.9, and by 8 weeks it had reduced to 1.3, remission. At 4 months, their BASDAI continues to be low at 1.5. • Response to therapy in clinical practice is defined as improvement of 2 units or 50% on a 0-10 scale of the BASDAI, and expert opinion that the treatment should be continued. Their reduction by 4 months was 2.3. We shall continue treatment.

CC(=O)N[C@H](Cc1ccc2ccccc2c1)C(=O)N[C@H](Cc1ccc(Cl)cc1)C(=O)N[C@H](Cc1cccnc1)C(=O)N[C@@H](CO)C(=O)N[C@@H](Cc1ccc(NC(=O)[C@@H]2CC(=O)NC(=O)N2)cc1)C(=O)N[C@H](Cc1ccc(NC(N)=O)cc1)C(=O)N[C@@H](CC(C)C)C(=O)N[C@@H](CCCCNC(C)C)C(=O)N1CCC[C@H]1C(=O)N[C@H](C)C(N)=O [degarelix] (Ac-[d2Nal][dPhe(4-Cl)][d3Pal]S[Phe(4-NH2)](Dihydroorotyl(S))[dPhe(4-NHCONH2)]L[Lys(iPr)]P[dA]-NH2)
HbA1c (4.3-6.1), final ([1]; Patient 1, by 24 wks, baseline 6.4, * normalized): 6.4, 6.1*
Rheumatoid factor (<14), final ([1]; Patient 1, by 24 wks, baseline 7): 7, 9
LH, final ([1]; Patient 1, by 24 wks, baseline 22): 22, <0.
FSH, final ([1]; Patient 1, by 24 wks, baseline 38): 38, 1
ESR (erythrocyte sedimentation rate), final ([1]; Patient 1, by 24 wks, baseline 46, * normalized): 46, 24 *
CRP (<5), final ([1]; Patient 1, by 24 wks, baseline 63): 63, 16
Blood Pressure, final ([1]; Patient 1, by 24 wks, baseline 151/90, * normalized): 151/90, 120/71 *
CCP antibody (<10), final ([1]; Patient 1, by 24 wks, baseline NEG): NEG, NEG
HbA1c (4.3-6.1), final ([1]; Patient 2, by 15 wks, baseline 5.3): 5.3, 5.3
LH, final ([1]; Patient 2, by 15 wks, baseline 36): 36, <0.3
CRP (<5), final ([1]; Patient 2, by 15 wks, baseline 44): 44, 23
Rheumatoid factor (<14), final ([1]; Patient 2, by 15 wks, baseline 51): 51, 38
ESR (erythrocyte sedimentation rate), final ([1]; Patient 2, by 15 wks, baseline 51, * normalized): 51, 16*
FSH, final ([1]; Patient 2, by 15 wks, baseline 72): 72, 0.4
CCP antibody (<10), final ([1]; Patient 2, by 15 wks, baseline 101): 101, 70
Blood Pressure, final ([1]; Patient 2, by 15 wks, baseline 118/82): 118/82, 126/80
LH ([1]; Patient 3, 4 wks, baseline 2): <0.3
ESR ([1]; Patient 3, 4 wks, baseline 46): 41
LH ([1]; Patient 3, 8 wks, baseline 2): <0.3
ESR ([1]; Patient 3, 8 wks, baseline 46): 36
LH ([1]; Patient 3, 12 wks, baseline 2): <0.3
ESR ([1]; Patient 3, 12 wks, baseline 46): 20
LH, final ([1]; Patient 3, by 12 wks, baseline 2): 2, >0.3
HbA1c (4.3-6.1), final ([1]; Patient 3, by 12 wks, baseline 5.1): 5.1, 5.4
FSH, final ([1]; Patient 3, by 12 wks, baseline 6): 6, 1
CRP (<5), final ([1]; Patient 3, by 12 wks, baseline 33): 33, 19
ESR (erythrocyte sedimentation rate), final ([1]; Patient 3, by 12 wks, baseline 46, * normalized): 46, 20 *
CCP antibody (<10), final ([1]; Patient 3, by 12 wks, baseline 102): 102, 101
Blood Pressure, final ([1]; Patient 3, by 12 wks, baseline 110/68): 110/68; 110/66
Rheumatoid factor (<14), final ([1]; Patient 3, by 12 wks, baseline 178): 178, 163
LH ([1]; Patient 4, 3½ wks, baseline 8): <0.3
ESR ([1]; Patient 4, 3½ wks, baseline 78): 68
LH ([1]; Patient 4, 9 wks, baseline 8): <0.3
ESR ([1]; Patient 4, 9 wks, baseline 78): 36
HbA1c (4.3-6.1), final ([1]; Patient 4, by 9 wks, baseline 6.9): 6.9, 6.4
LH, final ([1]; Patient 4, by 9 wks, baseline 8): 8, <0.3
FSH, final ([1]; Patient 4, by 9 wks, baseline 15, * normalized): 15, 0.7*
ESR (erythrocyte sedimentation rate), final ([1]; Patient 4, by 9 wks, baseline 78): 78, 36
Blood Pressure, final ([1]; Patient 4, by 9 wks, baseline 130/80): 130/80; 120/78
CRP (<5), final ([1]; Patient 4, by 9 wks, baseline 142): 142, 56
Rheumatoid factor (<14), final ([1]; Patient 4, by 9 wks, baseline >200, above limit): >200, >200
CCP antibody (<10), final ([1]; Patient 4, by 9 wks, baseline >340, above limit): >340, >340
HbA1c (4.3-6.1), final ([1]; Patient 5, by 7 wks, baseline 5.1): 5.1, 5.5
ESR (erythrocyte sedimentation rate), final ([1]; Patient 5, by 7 wks, baseline 28): 28, 8
LH, final ([1]; Patient 5, by 7 wks, baseline 44): 44, <0.3
FSH, final ([1]; Patient 5, by 7 wks, baseline 64): 64, <0.1
Blood Pressure, final ([1]; Patient 5, by 7 wks, baseline 134/79): 134/79; 124/80
Rheumatoid factor (<14), final ([1]; Patient 5, by 7 wks, baseline 167): 167, >200
CCP antibody (<10), final ([1]; Patient 5, by 7 wks, baseline 257): 257, 235
CRP (<5), final ([1]; Patient 5, by 7 wks, baseline <5): <5, 6
HbA1c (4.3-6.1), final ([1]; Patient 6, by 3 ½ wks, baseline 5.5): 5.5, 5.4
Rheumatoid factor (<14), final ([1]; Patient 6, by 3 ½ wks, baseline 8): 8, 8
CRP (<5), final ([1]; Patient 6, by 3 ½ wks, baseline 22, * normalized): 22, <5*
LH, final ([1]; Patient 6, by 3 ½ wks, baseline 30): 30, <0.3
ESR (erythrocyte sedimentation rate), final ([1]; Patient 6, by 3 ½ wks, baseline 37, * normalized): 37, 24*
FSH, final ([1]; Patient 6, by 3 ½ wks, baseline 79): 79, 0.6
Blood Pressure, final ([1]; Patient 6, by 3 ½ wks, baseline 90/60): 90/60; 100/64
CCP antibody (<10), final ([1]; Patient 6, by 3 ½ wks, baseline NEG): NEG, NEG
Fecal calprotectin (<50 normal) ([2]; 2 Oct. 2014, normal): 48, normal mg/kg
Fecal calprotectin (<50 normal) ([2]; 10 Jan. 2015, normal): 32, normal mg/kg
Fecal calprotectin (<50 normal) ([2]; 24 Sep. 2014 (started 10.09.14), high): 79, high mg/kg
Partial Mayo score ([2]; at 12 weeks, baseline 3): 0
Testosterone (normal 8-35 nmol/L) (Patient with Psoriasis; after the first week, before 12 nmol/L): < 1 nmol/L
Improvement in psoriasis (Patient with Psoriasis; at 6 months): stable
PASI absolute reduction (Patient with Psoriasis; by 8 weeks): 12.3 points
PASI reduction (Patient with Psoriasis; by 8 weeks): 23%
PASI score (Patient with Psoriasis; by 8 weeks, baseline 53.6): 41.3
Testosterone (normal 8-35 nmol/L) (Patient with Psoriasis; week 8, under testosterone substitution (Testogel)): 9 nmol/L
BASDAI ([3]; at 4 months): 1.5
BASDAI ([3]; by 2 weeks): 2.9
BASDAI reduction ([3]; by 4 months): 2.3
BASDAI ([3]; by 8 weeks, remission): 1.3
